Holding throughout (assay): relative viability (nuclei count vs DMSO), 5 days (fraction); higher = more cells survive
Compound in one test: O=C(Nc1c[nH]nc1-c1nc2ccc(CN3CCOCC3)cc2[nH]1)NC1CC1 [AT9283]
In short, it runs like this:
(§1)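 Cells of lung cancer lines were placed in 1536-well plates and kept overnight at 37 °C. Pinning then delivered five library-drug doses (not always all listed), spaced by √10, onto plates anchored with vehicle, and the cells were left 5 days without changing medium. One step fixed, permeabilised and stained them with Hoechst, and MetaXpress counted nuclei in 4× images. Viability, as a median over plates, is treated-well nuclei divided by vehicle-well nuclei, with acceptance only at control CV below 25% and at least one doubling.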

Compound in another test: C#Cc1cccc(Nc2ncnc3cc(OCCOC)c(OCCOC)cc23)c1 [Erlotinib]
The essentials: as §1

Compound in another test: N=C(N)NC(=N)NCCc1ccccc1 [Phenformin] (anchor plate)
To be noted: 250 µM. In short, it runs like this: as §1

Results on five cell lines are retold here after the supplement of paper PMC10307832.

As to PC-3 [JPC-3], the relative viability was 1.03 with AT9283 (0.003 µM); 0.961 in the test with AT9283 (0.03 µM); 0.868 in the test with AT9283 (0.09487 µM); 0.498 in the test with AT9283 (0.3 µM); 0.945 with Erlotinib (0.02 µM); 0.636 in the test with Erlotinib (0.2 µM). For the same cell line, the relative viability turned out to be 0.459 with Erlotinib (0.6325 µM), 0.407 with Erlotinib (2 µM) and 0.469 with Phenformin.
Consider LXF-289, for which the relative viability with AT9283 (0.003 µM) came to 0.995; in the test with AT9283 (0.03 µM), 0.993; in the test with AT9283 (0.09487 µM) it was 0.465; in the test with AT9283 (0.3 µM) it was 0.22; in the test with Erlotinib (0.02 µM), 0.98; in the test with Erlotinib (0.2 µM) it was 1.03. In addition, the relative viability with Erlotinib (0.6325 µM) is 0.971; with Erlotinib (2 µM), 0.963; in the test with Phenformin, 0.518.
Consider NCI-H2126, for which the relative viability is 0.963 in the test with AT9283 (0.003 µM); 0.991 in the test with AT9283 (0.03 µM); 0.829 in the test with AT9283 (0.09487 µM); 0.407 with AT9283 (0.3 µM); 0.961 with Erlotinib (0.02 µM); 0.82 in the test with Erlotinib (0.2 µM). Besides, the values for the relative viability in the test with Erlotinib (0.6325 µM), in the test with Erlotinib (2 µM) and with Phenformin were 0.773, 0.636 and 0.535, respectively.
As to BEN, the relative viability was found to be 0.874 in the test with AT9283 (0.003 µM); 0.965 in the test with AT9283 (0.03 µM); 0.23 with AT9283 (0.09487 µM); 0.278 in the test with AT9283 (0.3 µM); 0.927 in the test with Erlotinib (0.02 µM); 0.954 in the test with Erlotinib (0.2 µM). Moreover, the values for the relative viability with Erlotinib (0.6325 µM), with Erlotinib (2 µM) and with Phenformin were 1.19, 0.961 and 0.263, respectively.
On to NCI-H3122, for which the relative viability was found to be 0.982 with AT9283 (0.003 µM); 0.963 with AT9283 (0.03 µM); 0.619 in the test with AT9283 (0.09487 µM); 0.236 with AT9283 (0.3 µM); 0.987 with Erlotinib (0.02 µM); 1 with Erlotinib (0.6325 µM). Further, the figures for the relative viability in the test with Erlotinib (2 µM) and in the test with Phenformin were 0.977 and 0.386, respectively.
